# According to US7754896B2, “Indol-alanine derivatives as selective S1P4-agonists” (Novartis AG, priority 2004, dated 2010):
# Target: T1, S1P4 (Homo sapiens, UniProt O95977)
# T1 construct: expressed in transfected cells
# T1 sequence (O95977 1-384): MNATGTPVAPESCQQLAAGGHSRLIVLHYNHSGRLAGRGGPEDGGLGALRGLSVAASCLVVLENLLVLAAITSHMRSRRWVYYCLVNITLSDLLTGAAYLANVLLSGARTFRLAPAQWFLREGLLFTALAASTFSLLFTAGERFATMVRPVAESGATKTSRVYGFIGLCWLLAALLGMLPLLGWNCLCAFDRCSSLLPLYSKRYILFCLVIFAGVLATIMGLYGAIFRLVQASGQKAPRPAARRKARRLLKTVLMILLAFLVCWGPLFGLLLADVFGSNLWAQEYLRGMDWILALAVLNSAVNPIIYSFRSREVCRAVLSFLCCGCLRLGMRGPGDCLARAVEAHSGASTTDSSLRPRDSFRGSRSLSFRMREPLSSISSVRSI
# Test: EC50 for S1P4 'in this assay' (GTPγS binding or calcium mobilization, not specified)
# Type: cell-based
# Conditions: assay format not specified ('this assay')
# Protocol: The selection of the clones to be tested in the GTPγS assay is based on the real time PCR assays. CHO clones expressing large amounts of human S1P4 are used in these experiments. Membrane proteins are prepared as described above. The basic protocol of GTPγ^35S-binding assay used is described in a recent publication (Brinkmann et al. 2002, J. Biol. Chem, 277, 21453) with the modifications described here below. To characterize the GTPγ^35S-binding to membrane proteins from CHO cells expressing S1P, WGA coated PVT beads (SPA-bead, Amersham Biosciences) are used. Because β-rays of GTPγ^35S have […] in water solution, the plates are centrifuged to minimize non-specific effects caused by the non bound GTPγ^35S. The assay is performed in 96-well Optiplates (Packard, Cat. N^o 6005190) in final volume of 225 μl/well. […] The plates are then centrifuged for 10 minutes at 2000 rpm and counted with a TopCount instrument (Packard). […]
# CHO cells are plated in black Costar plate (96 or 384 well, 50,000 cells or 12,500 cells, respectively) in a MEM with FCS and cultured for 20-24 h at 37° C. in a CO2 incubator. […] After measuring the baseline for 40 sec, the agonist in HBSS is added and the fluorescence is measured at intervals of 2 sec for 3 to 5 min. […]
smiles,measurement,value
"CCc1ccccc1-c1cccc2[nH]c(C(=O)NC[C@@H](N)C(=O)O)cc12 [Example 1, 3-(4-(2-Ethylphenyl)-2-carboxamido-indole)-D-alanine]",EC50,432 nM
